Drawing on US10562898B2, “Substituted benzenesulfonamides as inhibitors of alpha-4 beta-7 integrin activity” (EA PHARMA CO., LTD., priority 2016, dated 2020), this text covers IC50 for 25 compounds.

For this test, the target named is T1, α4β7 integrin (Homo sapiens, UniProt P13612+P26010).
T1 construct: a cell line RPMI-8866, which is known to express α4β7 integrin; endogenous in cells; host or cells: RPMI-8866 (human B cell line)
T1 sequence (P13612 34-1032): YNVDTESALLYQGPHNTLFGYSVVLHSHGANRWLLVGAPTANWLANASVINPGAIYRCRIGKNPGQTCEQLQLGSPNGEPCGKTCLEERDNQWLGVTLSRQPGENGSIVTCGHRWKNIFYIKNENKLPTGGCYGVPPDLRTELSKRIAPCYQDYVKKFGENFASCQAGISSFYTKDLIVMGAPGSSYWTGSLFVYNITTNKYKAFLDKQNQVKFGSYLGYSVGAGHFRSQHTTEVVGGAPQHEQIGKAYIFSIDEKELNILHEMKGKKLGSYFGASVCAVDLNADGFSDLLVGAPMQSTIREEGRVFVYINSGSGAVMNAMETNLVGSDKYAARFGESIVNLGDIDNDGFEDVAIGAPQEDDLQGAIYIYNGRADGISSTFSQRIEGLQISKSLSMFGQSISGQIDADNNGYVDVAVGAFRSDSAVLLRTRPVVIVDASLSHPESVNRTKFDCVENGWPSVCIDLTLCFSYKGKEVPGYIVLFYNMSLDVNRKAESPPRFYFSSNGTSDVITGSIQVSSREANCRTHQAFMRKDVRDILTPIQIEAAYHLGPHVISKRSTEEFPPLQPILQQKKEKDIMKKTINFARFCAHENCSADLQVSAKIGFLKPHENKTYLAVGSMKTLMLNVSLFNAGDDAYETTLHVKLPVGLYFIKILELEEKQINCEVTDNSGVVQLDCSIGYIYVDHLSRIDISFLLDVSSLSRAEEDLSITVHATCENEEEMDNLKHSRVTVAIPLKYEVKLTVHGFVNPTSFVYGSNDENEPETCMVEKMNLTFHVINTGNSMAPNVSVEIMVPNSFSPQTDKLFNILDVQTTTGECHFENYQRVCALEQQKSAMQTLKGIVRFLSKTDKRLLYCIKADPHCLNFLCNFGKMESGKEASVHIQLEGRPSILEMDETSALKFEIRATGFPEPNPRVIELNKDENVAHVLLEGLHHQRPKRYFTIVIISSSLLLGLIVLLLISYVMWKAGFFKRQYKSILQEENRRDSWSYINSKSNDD
T1 sequence (P26010 20-798): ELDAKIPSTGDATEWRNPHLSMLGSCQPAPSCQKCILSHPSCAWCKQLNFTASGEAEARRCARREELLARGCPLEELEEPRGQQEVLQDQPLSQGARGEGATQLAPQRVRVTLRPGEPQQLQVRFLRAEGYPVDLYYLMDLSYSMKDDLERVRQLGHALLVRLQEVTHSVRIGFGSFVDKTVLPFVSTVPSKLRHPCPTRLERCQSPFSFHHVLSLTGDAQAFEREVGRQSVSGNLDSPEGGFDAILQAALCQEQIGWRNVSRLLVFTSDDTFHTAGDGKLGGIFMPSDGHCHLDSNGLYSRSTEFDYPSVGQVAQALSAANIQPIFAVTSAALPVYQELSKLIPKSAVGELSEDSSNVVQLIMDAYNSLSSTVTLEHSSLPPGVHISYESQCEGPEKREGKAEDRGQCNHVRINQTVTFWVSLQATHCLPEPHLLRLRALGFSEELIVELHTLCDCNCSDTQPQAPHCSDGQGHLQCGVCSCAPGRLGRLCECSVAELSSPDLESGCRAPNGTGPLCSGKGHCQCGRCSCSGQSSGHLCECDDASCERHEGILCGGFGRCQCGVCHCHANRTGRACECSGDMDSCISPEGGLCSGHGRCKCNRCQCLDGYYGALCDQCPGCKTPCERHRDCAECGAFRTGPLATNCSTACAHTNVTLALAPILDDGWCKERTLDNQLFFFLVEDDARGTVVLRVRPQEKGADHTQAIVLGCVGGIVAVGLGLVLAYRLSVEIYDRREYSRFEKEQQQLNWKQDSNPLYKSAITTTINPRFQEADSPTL
The test is described as follows: MAdCAM-1/α4β7 integrin binding inhibitory activity evaluation test in presence of serum. The note with it: RPMI-8866 cells, recombinant mouse MAdCAM-1/Fc, 50% human serum; read-out: α4β7 Serum Added IC50. In kind it is cell-based. Here is the method: (3) MAdCAM-1/α4β7 Integrin Binding Inhibitory Activity Evaluation Test in Presence of Serum (1)
Each test substance was measured in terms of an ability to inhibit the MAdCAM-1 binding of a human B cell line, namely, a cell line RPMI-8866, which is known to express α4β7 integrin.
A solution of recombinant mouse MAdCAM-1/Fc (R&D Systems, Inc.) (1 μg/mL) diluted with a buffer A (carbonate buffer, pH 9.6) was added in an amount of 50 μL/well to a 96-well microtiter plate, followed by incubation at 4° C. overnight. After the plate was washed with PBS once, 150 μL/well of Block Ace (Snow Brand Milk Products Co., Ltd.) was added, followed by incubation at room temperature for 2 hours. After removal, the plate was washed with PBS once.
Then, 100 μL of the RPMI-8866 cells (2×10^6 cells/mL) and 100 of the test substance at each of various concentrations diluted with a binding buffer (DMEM containing 40 mM HEPES, 0.2% BSA, and 4 mM MnCl2) were added to the plate coated with the MAdCAM-1/Fc (5×10^5 cells/well) such that 50% human serum was contained at the final concentration. Then, incubation was allowed to proceed at 30° C. for 15 to 60 minutes. After the cells were bound to the wells, the plate was washed with PBS to remove unbound cells. A buffer C (PBS containing 1.5% Triton X-100) was added in an amount 50 μL/well to the plate to lyse the bound RPMI-8866 cells. After 30 μL of a substrate buffer (Promega, CytoTox 96 Non-Radioactive Cytotoxicity Assay) was added to 30 μL of the cell lysate, a reaction was allowed to proceed at room temperature in the dark for 30 minutes. After 30 μL of a stop solution (Promega, CytoTox 96 Non-Radioactive Cytotoxicity Assay) was added to each, and then an absorbance at 490 nm was measured using a plate reader. The absorbance obtained here represents a detection result of an activity of lactate dehydrogenase (LDH) eluted in the supernatant of each well, that is, the absorbance is proportional to the number of RPMI-8866 cells bound to the MAdCAM-1 and thus remaining on the plate. The test was performed in duplicate. Provided that the absorbance of the well containing no test substance was 100%, a cell binding rate with the test substance at each of the various concentrations was figured out, and a concentration IC50 which brought about 50% binding inhibition was calculated.
Regarding `Cc1c(C)n(C)c(=O)n(-c2ccc(C[C@H](NC(=O)c3cc(F)c(NS(=O)(=O)c4ccc(NC(=O)C(C)(C)C)cc4)cc3F)C(=O)O)cn2)c1=O` [Compound A28], the IC50 (in general, the midpoint of a concentration-inhibition curve) turned out to be 4.4 nM.

Consider `Cc1cn(C)c(=O)n(-c2ccc(C[C@H](NC(=O)c3cc(F)c(NS(=O)(=O)c4c[nH]c5cc(NC(=O)C(C)(C)C)ccc45)cc3F)C(=O)O)cn2)c1=O` [Compound A77], for which the half-inhibitory concentration (IC50) came to 25 nM.

On to `Cc1cc(=O)n(-c2ccc(C[C@H](NC(=O)c3cc(F)c(NS(=O)(=O)c4ccc(NC(=O)C(C)(C)C)cc4)cc3F)C(=O)O)cc2)c(=O)n1C` [Compound A46], for which the 50% inhibitory concentration (IC50) turned out to be 7.6 nM.

As to `Cc1c(C)n(C)c(=O)n(-c2ccc(C[C@H](NC(=O)c3cc(F)c(NS(=O)(=O)c4cccc(NC(=O)C(C)(C)C)c4)cc3F)C(=O)O)cn2)c1=O` [Compound A50], the half-inhibitory concentration (IC50) came to 63 nM.

As to `Cn1cc(C(F)(F)F)c(=O)n(-c2ccc(C[C@H](NC(=O)c3cc(F)c(NS(=O)(=O)c4ccc(NC(=O)C(C)(C)C)cc4)cc3F)C(=O)O)cn2)c1=O` [Compound A67], the IC50 was determined as 14 nM.

Turning to `Cn1c(=O)n(-c2ccc(C[C@H](NC(=O)c3cc(F)c(NS(=O)(=O)c4ccc(NC(=O)C5CCNCC5)cc4)cc3F)C(=O)O)cc2)c(=O)c2ccncc21` [Compound A6, (2S)-2-[[2,5-difluoro-4-[[4-(piperidine-4-carbonylamino)phenyl]sulfonylamino]benzoyl]amino]-3-[4-(1-methyl-2,4-dioxo-pyrido[3,4-d]pyrimidin-3-yl)phenyl]propanoic acid], the IC50 stood at 14 nM.

For `Cc1c(C)n(C)c(=O)n(-c2ccc(C[C@H](NC(=O)c3cc(F)c(NS(=O)(=O)c4ccc(NC(=O)C5(c6ccccc6)CC5)cc4)cc3F)C(=O)O)cc2)c1=O` [Compound A30], the 50% inhibitory concentration (IC50) was found to be 43 nM.

Consider `Cc1cn(C)c(=O)n(-c2ccc(C[C@H](NC(=O)c3cc(F)c(NS(=O)(=O)c4ccc(NC(=O)C(C)(C)C)cc4)cc3F)C(=O)O)nc2)c1=O` [Compound A69], for which the half-inhibitory concentration (IC50) was 16 nM.

Consider `Cn1ccc(=O)n(-c2ccc(C[C@H](NC(=O)c3cc(F)c(NS(=O)(=O)c4ccc(NC(=O)C(C)(C)C)cc4)cc3F)C(=O)O)cn2)c1=O` [Compound A53], for which the IC50 worked out at 11 nM.

On to `Cc1c(C)n(C)c(=O)n(-c2ccc(C[C@H](NC(=O)c3cc(F)c(NS(=O)(=O)c4ccc(NC(=O)C(C)(C)C)s4)cc3F)C(=O)O)cc2)c1=O` [Compound A10], for which the half-maximal inhibitory concentration (IC50) stood at 10 nM.

For `Cn1ccc(=O)n(-c2ccc(C[C@H](NC(=O)c3cc(F)c(NS(=O)(=O)c4ccc(NC(=O)C(C)(C)CO)cc4)cc3F)C(=O)O)cn2)c1=O` [Compound A62], the IC50 was found to be 22 nM.

Regarding `Cn1ccc(=O)n(-c2ccc(C[C@H](NC(=O)c3cc(F)c(NS(=O)(=O)c4ccc(NC(=O)C5(C(F)(F)F)CC5)cc4)cc3F)C(=O)O)cn2)c1=O` [Compound A55], the IC50 came out at 33 nM.

For `Cc1c(C)n(C)c(=O)n(-c2ccc(C[C@H](NC(=O)c3cc(F)c(NS(=O)(=O)c4ccc(-n5ccc(C6CCOCC6)cc5=O)cc4)cc3F)C(=O)O)cc2)c1=O` [Compound A34], the concentration for half-maximal inhibition (IC50) is 24 nM.

Take `Cn1c2c(c(=O)n(-c3ccc(C[C@H](NC(=O)c4cc(F)c(NS(=O)(=O)c5ccc(NC(=O)C(C)(C)C)cc5)cc4F)C(=O)O)cc3)c1=O)COCC2` [Compound A33]: the concentration for half-maximal inhibition (IC50) amounted to 1.7 nM.

As to `Cc1c(C)n(C)c(=O)n(-c2ccc(C[C@H](NC(=O)c3cc(F)c(NS(=O)(=O)c4ccc(N(C)C(=O)C(C)(C)C)cc4)cc3F)C(=O)O)cc2)c1=O` [Compound A35], the IC50 was 600 nM.

Take `Cn1c(=O)n(-c2ccc(C[C@H](NC(=O)c3cc(F)c(NS(=O)(=O)c4ccc(NC(=O)c5ccncc5)cc4)cc3F)C(=O)O)cc2)c(=O)c2ccncc21` [Compound A7]: the IC50 was determined as 28 nM.

Consider `Cc1c(C)n(C)c(=O)n(-c2ccc(C[C@H](NC(=O)c3cc(F)c(NS(=O)(=O)c4ccc(NC(=O)C(C)(C)C)cn4)cc3F)C(=O)O)cc2)c1=O` [Compound A19], for which the 50% inhibitory concentration (IC50) was 4.6 nM.

`Cc1c(C)n(C)c(=O)n(-c2ccc(C[C@H](NC(=O)c3cc(F)c(NS(=O)(=O)c4ccc(NC(=O)C5(O)CC5)cc4)cc3F)C(=O)O)cc2)c1=O` [Compound A22]: the IC50 stood at 25 nM.

`Cn1ccc(=O)n(-c2ccc(C[C@H](NC(=O)c3cc(F)c(NS(=O)(=O)c4ccc(NC(=O)C5(C#N)CC5)cc4)cc3F)C(=O)O)cn2)c1=O` [Compound A59]: the concentration for half-maximal inhibition (IC50) was 93 nM.

Regarding `Cn1ccc(=O)n(-c2ccc(C[C@H](NC(=O)c3cc(F)c(NS(=O)(=O)c4ccc(NC(=O)C5CCCC5)cc4)cc3F)C(=O)O)cn2)c1=O` [Compound A64], the concentration for half-maximal inhibition (IC50) stood at 89 nM.

`Cn1c(=O)n(-c2ccc(C[C@H](NC(=O)c3cc(F)c(NS(=O)(=O)c4ccc(NC(=O)C5CCOCC5)cc4)cc3F)C(=O)O)cc2)c(=O)c2ccncc21` [Compound A14]: the IC50 amounted to 12 nM.

On to `Cn1c(=O)n(-c2ccc(C[C@H](NC(=O)c3cc(F)c(NS(=O)(=O)c4ccc(NC(=O)C5(O)CC5)cc4)cc3F)C(=O)O)cc2)c(=O)c2ccncc21` [Compound A23], for which the 50% inhibitory concentration (IC50) was found to be 32 nM.

Consider `Cc1c(C)n(C)c(=O)n(-c2ccc(C[C@H](NC(=O)c3cc(F)c(NS(=O)(=O)c4ccc(NC(=O)C(C)(C)CO)cc4)cc3F)C(=O)O)cc2)c1=O` [Compound A21], for which the IC50 is 7.2 nM.

For the compound `Cc1c(C)n(C)c(=O)n(-c2ccc(C[C@H](NC(=O)c3cc(F)c(NS(=O)(=O)c4ccc(NC(=O)C(C)(C)C)cc4)cc3F)C(=O)O)cc2)c1=O` [Compound A8], the half-maximal inhibitory concentration (IC50) is 3.7 nM.

Consider `Cn1ccc(=O)n(-c2ccc(C[C@H](NC(=O)c3cc(F)c(NS(=O)(=O)c4ccc(NC(=O)C(C)(C)C)cc4)cc3F)C(=O)O)nc2)c1=O` [Compound A70], for which the IC50 came out at 33 nM.
